Measured values as given in patent publication US12624034B2, “Non-covalent modifiers of AKT1 and uses thereof” (Terremoto Biosciences, Inc., priority 2023, dated 2026).
Read-outs that look alike come from different tables or passages of the source.

Assays:
[1] = test system: LAPC4 prostate cancer cells, which express the AKT1 E17K allele; test: Antiproliferative effects in LAPC4 cells (CellTiter Glo, 72 h); assay type: cell-based; conditions: Homo sapiens, LAPC4, 72 h, read-out: LAPC4 proliferation IC50
Procedure: Antiproliferative Effects in LAPC4 Cells.
LAPC4 prostate cancer cells (Klein, K. A. et al. Nat Med 1997, 3, 402-408), which express the AKT1 E17K allele, were grown in IMDM media (Hyclone) supplemented with 12% FBS+1% P/S. To assess compound effects on growth, 1,000 cells/well were seeded in 384 well assay plates, incubated with compound dilutions dissolved in DMSO. After 72 h, intracellular ATP content was assessed with CellTiter Glo reagent (Promega) according to the manufacturer's instructions. IC50 values were calculated by fitting luminescence values to a log(inhibitor) vs. response Hill equation.

AKT1 E17K = molecular target: T1, AKT1 E17K (Homo sapiens, UniProt P31749, E17K); test: Live cell AKT1 E17K target engagement by NanoBRET competitive probe displacement in HEK293 cells; assay type: binding; conditions: 2 h at 37° C.
T1 construct: expressed in transfected cells; host or cells: HEK293
Procedure: Determining live cell AKT1 E17K, AKT1 WT, and AKT2 target engagement by NanoBRET competitive probe displacement. Live cell target engagement assays were performed as described (Vasta, J. D. et al. Cell Chem Biol 2018, 25(11), 206-214). Briefly, HEK293 cells were transfected with plasmids encoding kinase-NanoLuciferase fusion proteins overnight. Cells were then treated with serial dilutions of compound and an ˜EC50 concentration of fluorescently-tagged ATP-competitive tracer (Promega). After incubation for 2 h at 37° C., luciferase substrate and extracellular luciferase inhibitor were added to all wells, and luminescent intensity at 460 nm and 600 nm were measured on a multimode plate-reader. The ratio of E600/E460 was calculated to give the tracer engagement signal (BRET). IC50 values were calculated by fitting BRET values to a log(inhibitor) vs. response Hill equation.

AKT1 WT = molecular target: T2, AKT1 WT (Homo sapiens, UniProt P31749); test: Live cell AKT1 WT target engagement by NanoBRET competitive probe displacement in HEK293 cells; assay type: binding; conditions: 2 h at 37° C., read-out: AKT1 WT IC50
T2 construct: expressed in transfected cells; host or cells: HEK293

AKT2 = molecular target: T3, AKT2 (Homo sapiens, UniProt P31751); test: Live cell AKT2 target engagement by NanoBRET competitive probe displacement in HEK293 cells; assay type: binding; conditions: 2 h at 37° C., read-out: AKT2 IC50
T3 construct: expressed in transfected cells; host or cells: HEK293

[2] = NanoBRET live cell target engagement, HEK293 cells
[3] = NanoBRET competitive probe displacement, live HEK293 cells

T1 sequence (P31749 whole entry E17K): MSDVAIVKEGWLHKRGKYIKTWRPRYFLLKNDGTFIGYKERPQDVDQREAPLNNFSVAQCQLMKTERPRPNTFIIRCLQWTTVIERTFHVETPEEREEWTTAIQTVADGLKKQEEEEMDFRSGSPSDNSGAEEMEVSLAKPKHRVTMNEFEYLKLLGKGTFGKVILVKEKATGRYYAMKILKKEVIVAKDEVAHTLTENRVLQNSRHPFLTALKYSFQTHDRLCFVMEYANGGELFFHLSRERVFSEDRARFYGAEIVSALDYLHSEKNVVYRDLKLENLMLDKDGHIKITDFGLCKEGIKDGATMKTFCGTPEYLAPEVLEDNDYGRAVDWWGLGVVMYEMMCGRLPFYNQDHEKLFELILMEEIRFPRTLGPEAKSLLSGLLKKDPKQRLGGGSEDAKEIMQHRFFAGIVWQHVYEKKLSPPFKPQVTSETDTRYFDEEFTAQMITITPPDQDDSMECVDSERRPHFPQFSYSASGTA
T2 sequence (P31749 whole entry): as the sequence (P31749 whole entry E17K) above, with K17E counted along it
T3 sequence (P31751 whole entry): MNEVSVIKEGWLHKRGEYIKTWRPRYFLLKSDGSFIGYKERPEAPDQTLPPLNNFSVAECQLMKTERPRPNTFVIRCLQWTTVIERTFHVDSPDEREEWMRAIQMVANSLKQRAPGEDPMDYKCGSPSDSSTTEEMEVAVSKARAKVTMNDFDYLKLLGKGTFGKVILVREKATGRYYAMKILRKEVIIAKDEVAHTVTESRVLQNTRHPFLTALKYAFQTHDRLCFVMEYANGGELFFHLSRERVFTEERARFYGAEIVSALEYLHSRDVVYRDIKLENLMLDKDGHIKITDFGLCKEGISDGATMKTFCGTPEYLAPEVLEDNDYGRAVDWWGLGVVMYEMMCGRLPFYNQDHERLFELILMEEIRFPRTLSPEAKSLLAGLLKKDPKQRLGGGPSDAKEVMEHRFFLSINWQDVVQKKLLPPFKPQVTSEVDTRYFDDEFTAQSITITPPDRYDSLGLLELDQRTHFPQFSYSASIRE

SMILES | IC50 [1] [nM] | IC50 (AKT1 E17K; [2]) [nM] | IC50 (AKT1 WT; [2]) [nM] | IC50 (AKT2; [2]) [nM] | IC50 (AKT1 E17K; [3]) [nM] | IC50 (AKT1 WT; [3]) [nM] | IC50 (AKT2; [3]) [nM]
Nc1ncccc1-c1nc2ccc(-n3cccn3)nc2n1-c1ccc2c(c1)CC[C@@H]2NC1CCN(c2cccnc2)CC1 [Compound 368] | 6620 | 406 | 36.8 | 768 |  |  | 
Nc1ncccc1-c1nc2ccc(-n3cccn3)nc2n1-c1ccc2c(c1)CC[C@@H]2NC(=O)c1ccc2[nH]cnc2c1 [Compound 22, (S)—N-(5-(2-(2-aminopyridin-3-yl)-5-(1H-pyrazol-1-yl)-3H-imidazo[4,5-b]pyridin-3-yl)-2,3-dihydro-1H-inden-1-yl)-1H-benzo[d]imidazole-5-carboxamide] | 1260 | 31.9 | 11.2 | 67.6 |  |  | 
C#Cc1ccc(C(=O)N[C@H]2CCc3cc(-n4c(-c5cccnc5N)nc5ccc(-n6cccn6)nc54)ccc32)cn1 [Compound 55, (S)—N-(5-(2-(2-aminopyridin-3-yl)-5-(1H-pyrazol-1-yl)-3H-imidazo[4,5-b]pyridin-3-yl)-2,3-dihydro-1H-inden-1-yl)-6-ethynylnicotinamide] | 1510 | 107 | 16.2 | 49.2 |  |  | 
COC1(C(F)F)CC(C(=O)N[C@H]2CCc3cc(-n4c(-c5cccnc5N)nc5ccc(-n6cccn6)nc54)ccc32)C1 (single isomer, unassigned) [Compound 10] | > 10000 | > 1000 | 390 | > 10000 |  |  | 
Nc1ncccc1-c1nc2ccc(-n3ccc(N4CCOCC4)n3)nc2n1-c1ccc2c(c1)CC[C@@H]2NC1CCN(C(=O)C2CC2)CC1 [Compound 488] | 624 |  |  |  | 30.6 | 7.99 | 98
Nc1ncccc1-c1nc2ccc(-n3cccn3)nc2n1-c1ccc2c(c1)CC[C@@H]2NC(=O)c1cncnc1 [Compound 40, N-[(1S)-5-[2-(2-aminopyridin-3-yl)-5-(pyrazol-1-yl)imidazo[4,5-b]pyridin-3-yl]-2,3-dihydro-1H-inden-1-yl]pyrimidine-5-carboxamide] | 1770 | 36 | 9.21 | 179 |  |  | 
Nc1ncccc1-c1nc2ccc(-n3cccn3)nc2n1-c1ccc2c(c1)CC[C@@H]2NC(=O)c1ccccc1 [Compound 43, (S)—N-(5-(2-(2-aminopyridin-3-yl)-5-(1H-pyrazol-1-yl)-3H-imidazo[4,5-b]pyridin-3-yl)-2,3-dihydro-1H-inden-1-yl)benzamide] | 1160 | 44.2 | 14.1 | 139 |  |  | 
N#Cc1ccc(C(=O)N[C@H]2CCc3cc(-n4c(-c5cccnc5N)nc5ccc(-n6cccn6)nc54)ccc32)cc1 [Compound 41, N-[(1S)-5-[2-(2-aminopyridin-3-yl)-5-(pyrazol-1-yl)imidazo[4,5-b]pyridin-3-yl]-2,3-dihydro-1H-inden-1-yl]-4-cyanobenzamide] | 1170 | 30.1 | 6.36 | 57.4 |  |  | 
Nc1ncccc1-c1nc2ccc(-n3cccn3)nc2n1-c1ccc2c(c1)CC[C@@H]2NC1CCN(C(=O)c2ccncc2)CC1 [Compound 360] | > 10000 | > 1000 | 483 | 8140 |  |  | 
Nc1ncccc1-c1nc2ccc(-n3ccc(F)n3)nc2n1-c1ccc2c(c1)CC[C@@H]2NC(=O)c1ccc(C(F)F)nc1 [Compound 53, (S)—N-(5-(2-(2-aminopyridin-3-yl)-5-(3-fluoro-1H-pyrazol-1-yl)-3H-imidazo[4,5-b]pyridin-3-yl)-2,3-dihydro-1H-inden-1-yl)-6-(difluoromethyl)nicotinamide] | 1120 | 142 | 18.1 | 118 |  |  | 
Nc1ncccc1-c1nc2ccc(-n3cccn3)nc2n1-c1ccc2c(c1)CC[C@@H]2NC1CCN(C(=O)c2ccccc2)CC1 [Compound 275] | 4380 | 570 | 51 | 1070 |  |  | 
COc1cc(C(=O)N[C@H]2CCc3cc(-n4c(-c5cccnc5N)nc5ccc(-n6cccn6)nc54)ccc32)cc(F)c1F [Compound 3, (S)—N-(5-(2-(2-aminopyridin-3-yl)-5-(1H-pyrazol-1-yl)-3H-imidazo[4,5-b]pyridin-3-yl)-2,3-dihydro-1H-inden-1-yl)-3,4-difluoro-5-methoxybenzamide] | 1710 | 120 | 7.21 | 132 |  |  | 
CN(C)C(=O)N1CCC(N[C@H]2CCc3cc(-n4c(-c5cccnc5N)nc5ccc(-n6cccn6)nc54)ccc32)CC1 [Compound 394] | > 10000 |  |  |  | > 1000 | 101 | 1480
COc1cc(C(=O)N[C@H]2CCc3cc(-n4c(-c5cccnc5N)nc5ccc(-n6cccn6)nc54)ccc32)c(C)cn1 [Compound 357] | 875 | 23.8 | 5.79 | 20 |  |  | 
Nc1ncccc1-c1nc2ccc(-n3cccn3)nc2n1-c1ccc2c(c1)CC[C@@H]2NC1CCN(C(=O)C2CC2)CC1 [Compound 279] | 9360 | > 1000 | 45.4 | 2400 |  |  | 
Nc1ncccc1-c1nc2ccc(-n3cccn3)nc2n1-c1ccc2c(c1)CC[C@@H]2NC(=O)c1ccnc(C(F)F)c1 [Compound 44, (S)—N-(5-(2-(2-aminopyridin-3-yl)-5-(1H-pyrazol-1-yl)-3H-imidazo[4,5-b]pyridin-3-yl)-2,3-dihydro-1H-inden-1-yl)-2-(difluoromethyl)isonicotinamide] | 1400 | 74.1 | 9.55 | 141 |  |  | 
Nc1ncccc1-c1nc2ccc(-n3nccn3)nc2n1-c1ccc2c(c1)CC[C@@H]2NC(=O)c1cncnc1 [Compound 59, (S)—N-(5-(2-(2-aminopyridin-3-yl)-5-(2H-1,2,3-triazol-2-yl)-3H-imidazo[4,5-b]pyridin-3-yl)-2,3-dihydro-1H-inden-1-yl)pyrimidine-5-carboxamide] | 3620 | 261 | 48.8 | 3430 |  |  | 
Nc1ncccc1-c1nc2ccc(-n3cccn3)nc2n1-c1ccc2c(c1)CC[C@@H]2NC(=O)c1cncnc1C(F)F [Compound 116] | 5240 | 157 | 10.2 | 303 |  |  | 
Nc1ncccc1-c1nc2ccc(-n3cccn3)nc2n1-c1ccc2c(c1)CC[C@@H]2n1cc(C2CC2(F)F)nn1 (stereo partly shown) [Compound 362] | 6960 | 138 | 36.1 | 1270 |  |  | 
Cc1ncccc1C(=O)N[C@H]1CCc2cc(-n3c(-c4cccnc4N)nc4ccc(-n5cccn5)nc43)ccc21 [Compound 29, (S)—N-(5-(2-(2-aminopyridin-3-yl)-5-(1H-pyrazol-1-yl)-3H-imidazo[4,5-b]pyridin-3-yl)-2,3-dihydro-1H-inden-1-yl)-2-methylnicotinamide] | 3650 | 78.6 | 15.9 | 153 |  |  | 
Nc1ncccc1-c1nc2ccc(-n3cccn3)nc2n1-c1ccc2c(c1)CC[C@@H]2NC1CN(C(=O)C2CC2)C1 [Compound 441] | 3710 |  |  |  | > 1000 | 21.7 | 1340
COCCOc1ccn(-c2ccc3nc(-c4cccnc4N)n(-c4ccc5c(c4)CC[C@@H]5NC4CCN(C(=O)C5CC5)CC4)c3n2)n1 [Compound 504] | 4410 |  |  |  | > 1000 | 14.3 | 665
Nc1ncccc1-c1nc2ccc(-n3cccn3)nc2n1-c1ccc2c(c1)CC[C@@H]2NC(=O)c1ccnnc1 [Compound 33, (S)—N-(5-(2-(2-aminopyridin-3-yl)-5-(1H-pyrazol-1-yl)-3H-imidazo[4,5-b]pyridin-3-yl)-2,3-dihydro-1H-inden-1-yl)pyridazine-4-carboxamide] | 3750 | > 1000 | 19.6 | 321 |  |  | 
Cn1ncc2cc(C(=O)N[C@H]3CCc4cc(-n5c(-c6cccnc6N)nc6ccc(-n7cccn7)nc65)ccc43)cnc21 [Compound 28, (S)—N-(5-(2-(2-aminopyridin-3-yl)-5-(1H-pyrazol-1-yl)-3H-imidazo[4,5-b]pyridin-3-yl)-2,3-dihydro-1H-inden-1-yl)-1-methyl-1H-pyrazolo[3,4-b]pyridine-5-carboxamide] | 225 | 12.1 | 2.53 | 6.6 |  |  | 
Nc1ncccc1-c1nc2ccc(-n3cccn3)nc2n1-c1ccc2c(c1)CC[C@@H]2n1cc(C2CC2)nn1 [Compound 221] | 1280 | 5.8 | 10.9 | 449 |  |  | 
